Assay results published in PMC2999579 (Molecular imaging and biology : MIB : the official …, 2009).

Target: integrin αvβ3 (Homo sapiens, UniProt P05106+P06756)
Test: Competitive cell-binding assay with ^125I-echistatin on U87MG cells
Details: SD

With `CC(F)C(=O)NC[C@@H]1O[C@H](C(=O)NCCCC[C@@H]2NC(=O)[C@@H](Cc3ccccc3)NC(=O)[C@H](CC(=O)O)NC(=O)CNC(=O)[C@H](CCCNC(=N)N)NC2=O)[C@H](O)[C@H](O)[C@H]1O` (stereo partly shown) [galacto-RGD, FP-SAA-c(RGDfK)] the IC50 was 0.404 ± 0.038 µM.
